Data on 22 compounds can be found in patent publication US12258354B2, “AhR modulators” (IDEAYA BIOSCIENCES, INC., priority 2018, dated 2025).

A value given as a limit tells only on which side of the number the result lay.

The test addresses T1, hAhR (Homo sapiens, UniProt P35869).
T1 construct: Stably integrated DRE-luciferase cell lines were generated by transducing the both cell lines with Cignal XRE luciferase reporter; endogenous in cells; host or cells: HEPG2 DRE-Luc cells (only the XRE luciferase reporter was transduced)
T1 sequence (P35869 11-848): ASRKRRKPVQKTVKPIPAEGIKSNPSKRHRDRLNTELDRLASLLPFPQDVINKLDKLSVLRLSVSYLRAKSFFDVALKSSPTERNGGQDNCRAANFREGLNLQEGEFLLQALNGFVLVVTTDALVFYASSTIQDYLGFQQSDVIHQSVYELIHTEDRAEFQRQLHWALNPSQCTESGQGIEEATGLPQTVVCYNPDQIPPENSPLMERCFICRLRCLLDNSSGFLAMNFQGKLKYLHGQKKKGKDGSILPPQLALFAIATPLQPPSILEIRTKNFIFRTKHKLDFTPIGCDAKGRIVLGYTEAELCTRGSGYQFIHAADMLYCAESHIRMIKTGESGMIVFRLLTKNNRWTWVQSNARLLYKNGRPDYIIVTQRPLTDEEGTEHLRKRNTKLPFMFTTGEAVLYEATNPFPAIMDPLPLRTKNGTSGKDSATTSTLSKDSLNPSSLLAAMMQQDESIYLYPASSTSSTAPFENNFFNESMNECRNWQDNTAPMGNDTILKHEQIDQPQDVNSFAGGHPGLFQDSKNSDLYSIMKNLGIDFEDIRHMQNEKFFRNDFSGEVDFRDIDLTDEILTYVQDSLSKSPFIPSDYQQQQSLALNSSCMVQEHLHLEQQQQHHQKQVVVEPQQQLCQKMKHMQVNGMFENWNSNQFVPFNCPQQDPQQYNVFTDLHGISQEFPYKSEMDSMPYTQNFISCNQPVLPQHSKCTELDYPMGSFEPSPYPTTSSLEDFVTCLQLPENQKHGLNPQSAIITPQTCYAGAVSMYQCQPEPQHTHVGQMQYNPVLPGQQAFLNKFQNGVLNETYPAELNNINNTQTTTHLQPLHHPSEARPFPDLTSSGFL
As to the kind of experiment: DRE-luciferase transcriptional reporter assay in HEPG2 DRE-Luc cells, TCDD-induced (antagonist mode). The class given is cell-based. As to conditions: relative IC50, 3 nM TCDD, 24-hour incubation, firefly luciferase readout. As for the experimental part:
HEPG2 and HEPA1C1C7 cells were maintained in MEM and αMEM without nucleosides supplemented with 10% heat inactivated FBS respectively. Stably integrated DRE-luciferase cell lines were generated by transducing the both cell lines with Cignal XRE luciferase reporter (Qiagen) lentiviral particles according to the manufacturer protocol. For both cell lines stably integrated reporter cell lines were selected for the presence of 2 μg/mL puromycin. Following selection of stably integrated cell line pools, clonal cell lines were isolated by limiting dilution in 96-well plates. Transcriptional assays were performed by seeding 100 μL of cells at a density of 250,000 or 100,000 cells/mL, for HEPG2 and HEPA1C1C7 DRE-Luc cells respectively, into 96-well cell culture plates in OptiMEM supplemented with 0.5% heat inactivated FBS and allowed to attach overnight. For modulator assays, the compounds were added in a semi-log dose response using a D300e Digital Dispenser (Tecan) followed normalization with vehicle (DMSO). Immediately following compound addition 10 μL of 2,3,7,8-Tetrachlorodibenzo-p-dioxin (TCDD) was added to the cells to a final concentration of 3 nM or 0.3 nM for the HEPG2 and HEPA1C1C7 DRE-Luc cells respectively. Following 24-hour incubation, the medium was removed and the cells were lysed in 25 μL of Reporter Lysis Buffer (Promega). Firefly luciferase activity was measured immediately following the addition of 50 μL Luciferase Assay Reagent (Promega). The percent maximal activity for each point was determined using the following equation: (RLUsample−RLUvehicle−TCDD)/(RLUvehicle+TCDD RLUvehicle−TCDD)*100. The relative IC50, defined as the compound concentration required to reduce the TCDD induced response between the top and bottom plateau of each individual dose response curve by half, for each compound was determined using Prism 7 (GraphPad Software).
In general terms: In a reporter assay the amount or activity of a reporter protein is the signal.
`Cc1cc(N2CCn3ncc(C)c3C2=O)c(F)cc1-c1ccc2nc(C(F)(F)F)cc(C)c2n1` [compound 022, 5-(2-fluoro-5-methyl-4-(8-methyl-6-(trifluoromethyl)-1,5-naphthyridin-2-yl)phenyl)-3-methyl-6,7-dihydropyrazolo[1,5-a]pyrazin-4 (5H)-one] came in with a concentration for half-maximal inhibition (IC50) of less than 0.2 µM. The result for `Cc1cc(N2CCn3ncc(C)c3C2=O)c(C)cc1-c1ccc2cc(C(F)(F)F)ccc2n1` [compound 023, 5-(2,5-dimethyl-4-(6-(trifluoromethyl)quinolin-2-yl)phenyl)-3-methyl-6,7-dihydropyrazolo[1,5-a]pyrazin-4 (5H)-one] reads 1 to 10 µM; that for `Cc1cc(N2CCn3ncc(C)c3C2=O)c(F)cc1-c1ccc2cc(C(F)(F)F)ccc2n1` [compound 024, 5-(2-fluoro-5-methyl-4-(6-(trifluoromethyl)quinolin-2-yl)phenyl)-3-methyl-6,7-dihydropyrazolo[1,5-a]pyrazin-4 (5H)-one], less than 0.2 µM. The value for `Cc1cc(N2CCn3ncc(C)c3C2=O)c(F)cc1-c1ncc2cc(C(F)(F)F)ccc2n1` [compound 025, 5-(2-fluoro-5-methyl-4-(6-(trifluoromethyl)quinazolin-2-yl)phenyl)-3-methyl-6,7-dihydropyrazolo[1,5-a]pyrazin-4 (5H)-one] was less than 0.2 µM; that for `Cc1cc(N2CCn3ncc(C)c3C2=O)c(F)cc1-c1ncc2cc(C(F)(F)F)cc(C)c2n1` [compound 026, 5-(2-fluoro-5-methyl-4-(8-methyl-6-(trifluoromethyl)quinazolin-2-yl)phenyl)-3-methyl-6,7-dihydropyrazolo[1,5-a]pyrazin-4 (5H)-one] was less than 0.2 µM; that for `Cc1cc(-c2ccc3nc(C(F)(F)F)ccc3n2)ccc1N1CCc2cnn(C)c2C1=O` [compound 027, 1-methyl-6-(2-methyl-4-(6-(trifluoromethyl)-1,5-naphthyridin-2-yl)phenyl)-1,4,5,6-tetrahydro-7H-pyrazolo[3,4-c]pyridin-7-one] was less than 0.2 µM. The result for `Cc1cc(-c2ccc3nc(C(F)(F)F)cc(C)c3n2)ccc1N1CCc2cnn(C)c2C1=O` [compound 028, 1-methyl-6-(2-methyl-4-(8-methyl-6-(trifluoromethyl)-1,5-naphthyridin-2-yl)phenyl)-1,4,5,6-tetrahydro-7H-pyrazolo[3,4-c]pyridin-7-one] reads less than 0.2 µM; that for `Cc1cc(-c2ncc3cc(C(F)(F)F)ccc3n2)ccc1N1CCOc2cnn(C)c2C1=O` [compound 029, 1-methyl-7-(2-methyl-4-(6-(trifluoromethyl)quinazolin-2-yl)phenyl)-6,7-dihydro-1H-pyrazolo[3,4-f][1,4]oxazepin-8 (5H)-one], less than 0.2 µM.

In turn, `Cc1cc(-c2ccc3nc(C(F)(F)F)ccc3n2)ccc1N1CCOc2cnn(C)c2C1=O` [compound 030, 1-methyl-7-(2-methyl-4-(6-(trifluoromethyl)-1,5-naphthyridin-2-yl)phenyl)-6,7-dihydro-1H-pyrazolo[3,4-f][1,4]oxazepin-8 (5H)-one] returned an IC50 of less than 0.2 µM. The result for `Cc1cc(-c2ccc3nc(C(F)(F)F)cc(C)c3n2)ccc1N1CCOc2cnn(C)c2C1=O` [compound 031, 1-methyl-7-(2-methyl-4-(8-methyl-6-(trifluoromethyl)-1,5-naphthyridin-2-yl)phenyl)-6,7-dihydro-1H-pyrazolo[3,4-f][1,4]oxazepin-8 (5H)-one] reads less than 0.2 µM; that for `Cc1cc(N2CCOc3cnn(C)c3C2=O)c(C)cc1-c1ccc2nc(C(F)(F)F)ccc2n1` [compound 032, 7-(2,5-dimethyl-4-(6-(trifluoromethyl)-1,5-naphthyridin-2-yl)phenyl)-1-methyl-6,7-dihydro-1H-pyrazolo[3,4-f][1,4]oxazepin-8 (5H)-one], 1 to 10 µM.

For the compound `Cc1cc(-c2ncc3cc(C(F)(F)F)ccc3n2)ccc1N1CCOc2cn[nH]c2C1=O` [compound 033], the IC50 is less than 0.2 µM.

`Cc1cc(-c2ncc3cc(C(F)(F)F)ccc3n2)ccc1N1CCOc2cn(CC#N)nc2C1=O` [compound 035, 2-(7-(2-methyl-4-(6-(trifluoromethyl)quinazolin-2-yl)phenyl)-8-oxo-5,6,7,8-tetrahydro-2H-pyrazolo[3,4-f][1,4]oxazepin-2-yl)acetonitrile]: the IC50 is less than 0.2 µM. The value for `Cc1cc(-c2ncc3cc(C(F)(F)F)ccc3n2)ccc1N1CCOc2cnn(CC#N)c2C1=O` [compound 036, 2-(7-(2-methyl-4-(6-(trifluoromethyl)quinazolin-2-yl)phenyl)-8-oxo-5,6,7,8-tetrahydro-1H-pyrazolo[3,4-f][1,4]oxazepin-1-yl)acetonitrile] was less than 0.2 µM; that for `Cc1cc(-c2ncc3cc(C(F)(F)F)ccc3n2)ccc1N1CCOc2cn(CCO)nc2C1=O` [compound 037, 2-(2-hydroxyethyl)-7-(2-methyl-4-(6-(trifluoromethyl)quinazolin-2-yl)phenyl)-6,7-dihydro-2H-pyrazolo[3,4-f][1,4]oxazepin-8 (5H)-one] was less than 0.2 µM. `Cc1cc(-c2ncc3nc(C(F)(F)F)ccc3n2)ccc1N1CCOc2cn[nH]c2C1=O` [compound 038, 7-(2-methyl-4-(6-(trifluoromethyl)pyrido[3,2-d]pyrimidin-2-yl)phenyl)-6,7-dihydro-1H-pyrazolo[3,4-f][1,4]oxazepin-8 (5H)-one] gave an IC50 of less than 0.2 µM.

`Cc1cc(-c2ncc3nc(C(F)(F)F)ccc3n2)ccc1N1CCOc2nn[nH]c2C1=O` [compound 040, 7-[2-methyl-4-[6-(trifluoromethyl)pyrido[3,2-d]pyrimidin-2-yl]phenyl]-1H,5H,6H,7H,8H-[1,2,3]triazolo[4,5-f][1,4]oxazepin-8-one] gave an IC50 of 1 to 10 µM. The value for `Cc1cc(-c2ncc3nc(C(F)(F)F)ccc3n2)ccc1N1CCOc2nn(C)nc2C1=O` [compound 042, 2-methyl-7-(2-methyl-4-(6-(trifluoromethyl)pyrido[3,2-d]pyrimidin-2-yl)phenyl)-6,7-dihydro-2H-[1,2,3]triazolo[4,5-f][1,4]oxazepin-8 (5H)-one] was 0.2 to 0.5 µM. The value for `Cc1cc(-c2ncc3cc(C(F)(F)F)ccc3n2)ccc1N1CCOc2nn(C)nc2C1=O` [compound 043, 2-methyl-7-(2-methyl-4-(6-(trifluoromethyl)quinazolin-2-yl)phenyl)-6,7-dihydro-2H-[1,2,3]triazolo[4,5-f][1,4]oxazepin-8 (5H)-one] was 1 to 10 µM; that for `Cc1cc(-c2ncc3cc(C(F)(F)F)ccc3n2)ccc1N1C(=O)c2[nH]ncc2OCC1C` (stereo not shown) [compound 044, 6-methyl-7-(2-methyl-4-(6-(trifluoromethyl)quinazolin-2-yl)phenyl)-6,7-dihydro-1H-pyrazolo[3,4-f][1,4]oxazepin-8 (5H)-one] was less than 0.2 µM; that for `Cc1cc(-c2ccc3nc(C(F)(F)F)ccc3n2)ccc1N1C(=O)c2[nH]ncc2OCC1C` (stereo not shown) [compound 045, 6-methyl-7-(2-methyl-4-(6-(trifluoromethyl)-1,5-naphthyridin-2-yl)phenyl)-6,7-dihydro-1H-pyrazolo[3,4-f][1,4]oxazepin-8 (5H)-one] was less than 0.2 µM.

In the case of `Cc1cc(-c2ncc3nc(C(F)(F)F)ccc3n2)ccc1N1C(=O)c2[nH]ncc2OCC1C` (stereo not shown) [compound 046, 6-methyl-7-(2-methyl-4-(6-(trifluoromethyl)pyrido[3,2-d]pyrimidin-2-yl)phenyl)-6,7-dihydro-1H-pyrazolo[3,4-f][1,4]oxazepin-8 (5H)-one], the IC50 is less than 0.2 µM.

What is called IC50 is the concentration that inhibits the measured activity by half. A lower IC50 goes with inhibition by little substance.
